Tested on: PDE IV
Test: inhibition of PDE IV isolated from canine trachea (cAMP metabolism)
Type: biochemical
Settings: PDE IV from canine tracheal muscle; 1 μM 3H-cAMP; 10 μM CI-930; 30° C., pH 7.8; reduction expressed as percentage of that by 10 μM rolipram
Protocol: The following assay is employed to assess the ability of the compounds of the invention to inhibit PDE IV.
A solution containing PDE IV is prepared from canine tracheal muscle as follows:
The dog is euthanized with an overdose of beuthanasia while under anesthesia induced by a 33 mg/kg IV bolus of Nembutal. The trachealis muscle is removed, cleaned of connective tissue, and minced thoroughly. Three to four grams of tissue is then homogenized in Tris-HCl buffer (pH 7.8) using a Polytron. The homogenate is then centrifuged at 25,000×g (4° C.) for 30 minutes. The supernatant is decanted and filtered through four layers of gauze, and applied to a 40 cm×2 cm DEAE-Sepharose column that is equilibrated with Tris-HCl buffer (pH 7.8). The column is then washed with an additional 240 mL of buffer to remove unbound proteins. PDE is eluted using 450 mL of Tris-HCl buffer containing a linear gradient of 0.0-1.0M Na-acetate (80 mL/hr), and 7.5 mL fractions are collected. Each fraction is assayed for cAMP- and cGMP-metabolizing PDE activity. Fractions eluting at approximately 0.6M Na-acetate, and containing cAMP but not cGMP metabolic activity are pooled and used as a PDE stock solution for assaying PDE IV inhibitory activity.
CI-930 is included as an inhibitor of the cyclic GMP-sensitive, cyclic AMP-selectivePDE (PDE III) that is also present in the PDE IV stock solution when prepared as described above.

| Compound | IC50 |
| --- | --- |
| CCCCOc1cc(/C(C)=N/OC(N)=O)ccc1OC [Example 2, 1-[3-(Butoxy)-4-methoxyphenyl]ethanone (E)-O-(aminocarbonyl)oxime] | 90 nM |
| CNC(=O)O/N=C(\C)c1ccc(OC)c(OC2CCCC2)c1 [Example 7, 1-[3-(Cyclopentyloxy)-4-methoxyphenyl]ethanone (E)-O-[(methylamino)carbonyl]oxime] | 120 nM |
| CCCCOc1cc(/C(C)=N/OC(=O)NC)ccc1OC [Example 8, 1-(3-butoxy-4-methoxyphenyl)ethanone (E)-O-[(methylamino)carbonyl]oxime] | 200 nM |
| CCCCOc1cc(/C(C)=N/OC(=O)Nc2ccccc2)ccc1OC [Example 9, 1-(3-butoxy-4-methoxyphenyl)ethanone (E)-O-[(phenylamino)carbonyl]oxime] | 1500 nM |
| CCCCOc1cc(/C(C)=N/OC(=O)OC)ccc1OC [Example 11, 1-(3-butoxy-4-methoxyphenyl)ethanone (E)-O-(methoxycarbonyl)oxime] | 240 nM |
| CCCCOc1cc(/C(C)=N/OC(=O)Oc2ccccc2)ccc1OC [Example 12, 1-(3-butoxy-4-methoxyphenyl)ethanone (E)-O-(phenoxycarbonyl)oxime] | 380 nM |

Results, then the compound that gave them:

| IC50 | Compound |
| --- | --- |
| 48 nM | COc1ccc(/C(C)=N/OC(N)=O)cc1OC1CCCC1 [Example 1, 1-[3-(Cyclopentyloxy)-4-methoxyphenyl]ethanone (E)-O-(aminocarbonyl)oxime] |
| 410 nM | COc1ccc(/C(C)=N/OC(N)=O)cc1OCCCOc1ccccc1 [Example 3, 1-[4-Methoxy-3-(3-phenoxypropoxy)phenyl]ethanone (E)-O-(aminocarbonyl)oxime] |
| 47 nM | COc1ccc(/C(Cc2ccccc2)=N/OC(N)=O)cc1OC1CCCC1 [Example 4, 1-(3-Cyclopentyloxy-4-methoxyphenyl)-2-phenylethanone (E)-O-(aminocarbonyl)oxime] |
| 25 nM | COc1ccc(/C(CCc2ccccc2)=N/OC(N)=O)cc1OC1CCCC1 [Example 5, 1-(3-Cyclopentyloxy-4-methoxyphenyl)-3-phenylpropanone (E)-O-(aminocarbonyl)oxime] |
| 130 nM | COc1ccc(/C(CC(C)C)=N/OC(N)=O)cc1OC1CCCC1 [Example 6, 1-[3-(Cyclopentyloxy)-4-methoxyphenyl]-3-methylbutanone (E)-O-(aminocarbonyl)oxime] |
| 180 nM | COC(=O)O/N=C(\C)c1ccc(OC)c(OC2CCCC2)c1 [Example 10, 1-[3-(cyclopentyloxy)-4-methoxyphenyl]ethanone (E)-O-(methoxycarbonyl)oxime] |
| 67 nM | COc1ccc(/C(C)=N/OC(N)=O)cc1OC1CC2CCC1C2 (stereo not shown) [Example 13, 1-[3-(bicyclo[2.2.1]hept-2-yloxy)-4-methoxyphenyl]ethanone (E)-O-(aminocarbonyl)oxime] |
